Measurements taken from patent publication US8889130B2, “Treatment of osteoarthritis and pain” (Abbvie Inc., priority 2011, dated 2014).

Experiments:
[1] = system: mice (female BALB/c); assay: Mouse carrageenan-induced inflammatory pain model, thermal hyperalgesia (paw withdrawal latency); assay type: in vivo; details: for thermal hyperalgesia / antinociceptive effect: Example 8, 48 and 96 hours, single mAb 900 μg, diclofenac 30 mg/kg; for paw withdrawal latency, carrageenan (injured) paw: mAbs 900 μg each at 30 hours, diclofenac 30 mg/kg p.o. 60 minutes before testing
Procedure: To evaluate whether neutralization of IL-1α and IL-1β produces antinociceptive effects in inflammatory pain conditions, anti-IL-1α and anti-IL-1β mAbs were evaluated for the ability to reverse established pain in the mouse carrageenan paw model of nociceptive pain.
The efficacy of the anti-IL-1α and anti-IL-1β mAbs was evaluated when administered alone or in combination in the mouse carrageenan model (FIG. 15). At 30 hours after intraplantar carrageenan injection: 900 μg of either anti-IL-1α mAb, anti-IL-1β mAb, or their combination were administered in different groups of mice. Thermal hyperalgesia testing was performed 48 and 96 hours after carrageenan. […] The antinociceptive effect in 900 μg combination group was 53±7% at 48 hours, and 82±11% at 96 hours.
Different groups of animals were treated either with vehicle or a combination of anti-IL-1α and anti-IL-1β mAbs (100, 300, or 900 μg/mouse of each mAb) 30 hours after carrageenan injection. […] The antinociceptive effect in 900 μg treatment group was 70±9% at 48 hours, and 62±4% at 96 hours. Diclofenac (30 mg/kg), a non-steroidal, anti-inflammatory analgesic, was included as positive control in the study, and it increased the mean paw withdrawal latency of the injured paw to 7.01±0.58 s at 48 hours and 7.48±0.34 s at 96 hours when administered p.o. 60 minutes before testing (p<0.01 at both time points).

[2] = system: female BALB/c mice; assay: CFA (Complete Freund's Adjuvant) inflammatory pain model, mechanical allodynia (von Frey); assay type: in vivo, mouse; details: 48 hours after CFA, diclofenac 30 mg/kg
Procedure: The CFA (Complete Freund's Adjuvant) inflammatory pain model was used to test whether the anti-IL-1α and anti-IL-1β mAb combination would produce efficacy against a mechanical endpoint. Therefore, mechanical allodynia was assessed using von Frey monofilaments in animals (female BALB/c mice) 48 hours after they were injected intraplantar with CFA. […] Separate groups of animals were treated either with IgG isotype control or a combination of anti-IL-1α and anti-IL-1β mAbs (900 μg/mouse of each mAb) 30 hours after CFA injection. […] The magnitude of efficacy (% MPE) was 65.51±12.35% (FIG. 17B).

[3] = system: mice (male CD1); assay: L5/L6 spinal nerve ligation (SNL) model of neuropathic pain, mechanical allodynia; assay type: in vivo; details: mAbs 900 μg/mouse each, gabapentin 100 mg/kg, 1 hour pretreatment
Procedure: Whether an anti-IL-1α and anti-IL-1β mAb combination therapy would produce efficacy in neuropathic pain conditions was examined in an L5/L6 spinal nerve ligation (SNL) model in mice (male CD1). Testing was performed six days after SNL surgery, 24 and 72 hours after animals were treated with mAb combination (900 μg/mouse of each mAb). […] The magnitude of efficacy (% MPE) was 72.20±14.39% at 24 hours and 80.62±12.33% at 72 hours (FIG. 19).

[4] = system: human OA patients; details: literature (Cohen et al., ACR 2007); cited from earlier work
[5] = system: DMM mice; assay: DMM model of osteoarthritis, mechanical allodynia (paw withdrawal threshold); assay type: in vivo, mouse; details: Example 5 (FIG. 12); 6 mg/kg ip twice per week for four weeks; day 28
Procedure: The DMM model also generates measurable pain in the mice. […] The efficacy of anti-IL-1α/β therapy was studied in the DMM animal model.
The potential of anti-IL-1 therapy to ameliorate pain was tested in the DMM mouse model of OA in terms of mechanical allodynia. Dosing of the combination of IL-1α and IL-1β mAbs was initiated on the day of the surgery and was repeated twice a week for 5 weeks. Animals were treated with PBS vehicle alone, with an IgG isotype control, or with a combination of anti-IL-1α and anti-IL-1β mAbs (at a dose of 6 mg/kg for each mAb). Animals were tested weekly for paw withdrawal threshold. […] This reduction in pain was seen as early as week 1 following treatment (data not shown).
To evaluate the effect of IL-1 therapy in established pain, animals in the IgG control group with established OA and mechanical allodynia were treated on day 35 with the combination of anti-IL-1α and anti-IL-1β monoclonal antibodies and the paw withdrawal threshold was tested 24 hours later (day 36).
The potential of anti-IL-1 therapy to ameliorate pain in the DMM mouse model of OA (see, above) in terms of mechanical allodynia was further evaluated. Dosing of the combination of IL-1α and IL-1β mAbs was initiated on the day of the surgery and was repeated twice a week for 4 weeks. […]

[6] = system: male DBA-1 mice; assay: Collagen-induced arthritis mouse model (rheumatoid arthritis); assay type: in vivo; details: therapeutic mode; 1-3 mg/kg intraperitoneally every other day after disease onset
Procedure: The therapeutic effects of anti-IL-1α, anti-IL-1β, combined anti-IL-1α/anti-IL-1β, and murine IL-1α/β DVD4-Ig, were evaluated in a collagen-induced arthritis mouse model well known in the art. Briefly, male DBA-1 mice were immunized with bovine type II collagen in CFA at the base of the tail. The mice were boosted with Zymosan intraperitoneally (i.p) at day 21. After disease onset at day 24-27, mice were selected and divided into separate groups of 10 mice each. […] To neutralize IL-1, mice were injected every other day with 1-3 mg/kg of anti-IL-1α mAb, anti-IL-1βmAb, combination of anti-IL-1α and anti-IL-1β mAbs, or murine IL-1α/β DVD4-Ig intraperitoneally. Mice were carefully examined three times a week for the visual appearance of arthritis in peripheral joints, and scores for disease activity determined.

[7] = system: Male SV129 mice; assay: Destabilization of medial meniscus (DMM) model of osteoarthritis, cartilage degeneration (Chambers scores); assay type: in vivo, mouse; details: Example 3.3.6 (FIG. 7); 8 weeks; mAbs 6 mg/kg alone or in combination
Text: (§1) Male SV129 mice weighing approximately 30 grams, housed 5/cage, were anesthetized on Day 0 with ketamine/xylazine cocktail, administered intraperitoneally (ip), and then the medial collateral ligament was exposed by blunt dissection, and transected to reflect the meniscus toward the femur. The joint space was closed with 8-0 vicryl suture. The skin was closed with wound glue. For sham surgeries, a vertical skin incision was made over the medial aspect of the knee and the joint capsule was opened. The capsule was closed with 8-0 vicryl suture and the skin was closed with wound glue. Groups of animals were then treated with intraperitoneal (ip) injections of antibody or vehicle according to the study design table below. Two sex-matched, age-matched, and strain-matched naïve mice were also included in the study. Animals were euthanized after 8 weeks of treatment, and knee joints were harvested in 10% neutral buffered formalin.
Formalin-fixed samples were decalcified, and specimens were sectioned in the frontal plane into 15 step sections each. Each section was approximately 6 μm thick, and step sections were separated by 70 μm. All slides were stained with toluidine blue (T. Blue). Slides were assessed according to the Chambers method (Chambers et al. (2001) Arthritis Rheum 44:1455-65) for cartilage degeneration (see below) by a board-certified veterinary pathologist. Each of the four cartilage surfaces, the medial femoral condyle (MFC), the medial tibial plateau (MTP), the lateral femoral condyle (LFC), and the lateral tibial plateau (LTP), was scored from 0-6 according to the scale in the table below.
as §1, with “8-0 vicryl suture, and the” for “8-0 vicryl suture and the”, “injections of anti-mIL-1α monoclonal antibody, anti-mIL-1β (alone or in combination), mIL-1α/βDVD-Ig binding protein, or vehicle” for “injections of antibody or vehicle”, “design table below (Table 24). Animals were” for “design table below. Two sex-matched, age-matched, and strain-matched naïve mice were also included in the study. Animals were”, “weeks of treatment and knee” for “weeks of treatment, and knee”
Male SV129 mice weighing approximately 30 grams had the medial collateral ligament exposed by blunt dissection, and transected to reflect the meniscus toward the femur. The joint space was closed with 8-0 vicryl suture. The skin was closed with wound glue. For sham surgeries, a vertical skin incision was made over the medial aspect of the knee and the joint capsule was opened. The capsule was closed with 8-0 vicryl suture, and the skin was closed with wound glue. Groups of animals were then treated per os (po) or via intraperitoneal (ip) injections of vehicle or treatments according to the study design table below. Three sex-matched, age-matched, and strain-matched naïve mice were also included in the study. Animals were euthanized after 4 weeks of treatment, and knee joints were harvested in 10% neutral buffered formalin.

## O=C(O)Cc1ccccc1Nc1c(Cl)cccc1Cl [Diclofenac]
[1]
  thermal hyperalgesia / antinociceptive effect: significant attenuation of thermal hyperalgesia
[1]; Example 9 (FIG. 16A), at 48 hours
  paw withdrawal latency, carrageenan (injured) paw: 7.01 ± 0.58 s
[1]; Example 9 (FIG. 16B), at 96 hours
  paw withdrawal latency, carrageenan (injured) paw: 7.48 ± 0.34 s
[2]; mAbs 900 μg/mouse each 30 hours after CFA, 1 hour pretreatment
  paw withdrawal threshold, CFA injected paw: 0.359 ± 0.088 g
[2]; mAbs 900 μg/mouse each
  magnitude of efficacy (% MPE): 64.51±10.20%

## NCC1(CC(=O)O)CCCCC1 [gabapentin]
[3]; at 24 hours
  paw withdrawal threshold (von Frey): 0.858 ± 0.077 g
[3]; at 72 hours
  paw withdrawal threshold (von Frey): 1.138 ± 0.096 g

## Anakinra: IL-1 receptor antagonist
[4]
  efficacy in OA trials with respect to symptoms and chondroprotection: some efficacy

B1: 9H10: mouse anti-mouse IL-1α monoclonal antibody (clone 9H10) from IL-1α/β double KO mice (antibody, V domains shown)
VH: QVILKESGPGILQPSQTLSLTCSFSGFSLSTYGTAVNWIRQPSGKGLEWLAQIGSDDRKLYNPFLKSRITLSEDTSNSQVFLKITSVDTEDSATYYCANGVMEYWGLGTSVTVSS
VL: SIVMTQTPKFLLVSAGDRVTITCKASQSVNHDVAWYQQMPGQSPKLLIYFASNRYTGVPDRFTGSGYGTDFTFTISTVQAEDLAVYFCQQDYSSPYTFGGGTKLEIKR
modifications: heavy chain variable domain of 9H10; light chain variable domain of 9H10
notes: mouse anti-mouse IL-1α monoclonal antibody (clone 9H10) from IL-1α/β double KO mice
[1]
  thermal hyperalgesia / antinociceptive effect: no significant antinociceptive effect
[5]
  paw withdrawal threshold (allodynia): allodynic (painful)
[6]
  reduction in mean arthritis score compared to control group: 10%
[7]
  mean sum Chambers scores and mean maximum Chambers scores (cartilage degeneration): not statistically significant
